According to publication PMC6812009, “Covalent Aurora A regulation by the metabolic integrator coenzyme A” (Redox Biology, 2019):

Tests used:
Test in all cases: Kinase profiling screen (radioactive filter-binding assay)
Assay type in all cases: biochemical
DYRK2 = target: T1, DYRK2 (Homo sapiens, UniProt Q92630); details: 100 μM compound, 50 μM ATP; read-out: Kinase activity, % of activity in the absence of inhibitor
T1 sequence (Q92630 1-601): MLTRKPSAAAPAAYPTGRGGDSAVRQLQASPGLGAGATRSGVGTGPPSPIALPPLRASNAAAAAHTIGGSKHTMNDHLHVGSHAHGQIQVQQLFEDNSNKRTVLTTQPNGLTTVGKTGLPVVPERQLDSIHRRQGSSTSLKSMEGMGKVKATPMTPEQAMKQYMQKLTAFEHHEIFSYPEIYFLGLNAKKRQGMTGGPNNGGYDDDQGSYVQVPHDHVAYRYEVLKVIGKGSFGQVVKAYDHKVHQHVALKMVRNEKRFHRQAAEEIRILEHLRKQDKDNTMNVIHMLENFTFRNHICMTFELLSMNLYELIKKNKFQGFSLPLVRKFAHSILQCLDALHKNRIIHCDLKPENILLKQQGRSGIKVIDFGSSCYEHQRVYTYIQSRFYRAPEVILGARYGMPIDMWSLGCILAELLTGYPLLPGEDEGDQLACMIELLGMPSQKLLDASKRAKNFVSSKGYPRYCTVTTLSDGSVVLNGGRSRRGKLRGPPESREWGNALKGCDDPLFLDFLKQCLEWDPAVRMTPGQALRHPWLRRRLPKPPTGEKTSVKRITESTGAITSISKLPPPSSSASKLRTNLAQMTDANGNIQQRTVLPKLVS
Procedure, shortened: (§1)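 CoA, dpCoA and ADP were each tested in vitro, in duplicate, at 100 μM final concentration as part of a 117-kinase panel. Recombinant kinases were used with model substrates and optimal ATP concentrations.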

DYRK3 = target: T2, DYRK3 (Homo sapiens, UniProt O43781); details: 100 μM compound, 5 μM ATP; read-out: Kinase activity, % of activity in the absence of inhibitor
T2 sequence (O43781 1-588): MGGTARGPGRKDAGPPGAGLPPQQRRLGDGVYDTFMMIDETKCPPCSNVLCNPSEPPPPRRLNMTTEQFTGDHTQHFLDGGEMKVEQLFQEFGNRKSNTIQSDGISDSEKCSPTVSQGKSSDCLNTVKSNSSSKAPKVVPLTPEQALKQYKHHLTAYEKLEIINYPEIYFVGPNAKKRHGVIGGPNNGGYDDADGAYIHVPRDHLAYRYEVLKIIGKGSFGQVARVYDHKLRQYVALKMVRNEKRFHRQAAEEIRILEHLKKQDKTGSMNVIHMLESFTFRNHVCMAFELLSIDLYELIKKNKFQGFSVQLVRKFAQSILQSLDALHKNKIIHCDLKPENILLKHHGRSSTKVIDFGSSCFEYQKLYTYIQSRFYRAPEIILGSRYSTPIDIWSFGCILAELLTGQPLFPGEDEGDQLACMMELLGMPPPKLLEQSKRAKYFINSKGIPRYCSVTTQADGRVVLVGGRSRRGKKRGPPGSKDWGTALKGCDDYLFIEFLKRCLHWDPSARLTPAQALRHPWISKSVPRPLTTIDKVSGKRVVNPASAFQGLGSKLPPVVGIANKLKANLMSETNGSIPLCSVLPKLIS
Procedure, shortened: as §1

JNK3 = JNK3 (Homo sapiens, UniProt P53779); details: 100 μM compound, 20 μM ATP; read-out: Kinase activity, % of activity in the absence of inhibitor
Sequence of JNK3 (P53779 whole entry): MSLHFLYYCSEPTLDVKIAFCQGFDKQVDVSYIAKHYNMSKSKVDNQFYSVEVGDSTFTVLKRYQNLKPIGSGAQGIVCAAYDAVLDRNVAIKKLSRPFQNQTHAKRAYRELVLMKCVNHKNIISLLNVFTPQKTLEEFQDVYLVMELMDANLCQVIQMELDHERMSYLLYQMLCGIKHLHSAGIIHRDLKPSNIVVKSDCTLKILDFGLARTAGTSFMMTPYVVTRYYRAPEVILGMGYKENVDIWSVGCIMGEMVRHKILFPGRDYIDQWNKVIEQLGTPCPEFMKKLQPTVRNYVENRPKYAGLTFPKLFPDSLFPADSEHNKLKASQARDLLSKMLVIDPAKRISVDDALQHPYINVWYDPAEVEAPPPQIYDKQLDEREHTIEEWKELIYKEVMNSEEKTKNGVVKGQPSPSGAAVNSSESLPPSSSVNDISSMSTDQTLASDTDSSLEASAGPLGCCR
Procedure, shortened: as §1

PIM2 = PIM2 (Homo sapiens, UniProt Q9P1W9); details: 100 μM compound, 5 μM ATP; read-out: Kinase activity, % of activity in the absence of inhibitor
Sequence of PIM2 (Q9P1W9 whole entry): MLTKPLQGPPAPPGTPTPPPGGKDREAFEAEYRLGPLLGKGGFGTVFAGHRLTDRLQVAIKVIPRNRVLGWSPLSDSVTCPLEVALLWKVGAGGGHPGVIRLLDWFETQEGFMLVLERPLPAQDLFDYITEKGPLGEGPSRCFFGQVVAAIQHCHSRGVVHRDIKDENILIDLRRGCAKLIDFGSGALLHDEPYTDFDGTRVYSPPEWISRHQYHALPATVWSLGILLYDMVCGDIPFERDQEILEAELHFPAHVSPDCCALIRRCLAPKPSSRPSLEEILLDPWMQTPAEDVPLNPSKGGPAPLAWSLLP
Procedure, shortened: as §1

PIM3 = PIM3 (Homo sapiens, UniProt Q86V86); details: 100 μM compound, 20 μM ATP; read-out: Kinase activity, % of activity in the absence of inhibitor
Procedure, shortened: as §1

PLK1 = PLK1 (Homo sapiens, UniProt P53350); details: 100 μM compound, 5 μM ATP; read-out: Kinase activity, % of activity in the absence of inhibitor
Sequence of PLK1 (P53350 whole entry): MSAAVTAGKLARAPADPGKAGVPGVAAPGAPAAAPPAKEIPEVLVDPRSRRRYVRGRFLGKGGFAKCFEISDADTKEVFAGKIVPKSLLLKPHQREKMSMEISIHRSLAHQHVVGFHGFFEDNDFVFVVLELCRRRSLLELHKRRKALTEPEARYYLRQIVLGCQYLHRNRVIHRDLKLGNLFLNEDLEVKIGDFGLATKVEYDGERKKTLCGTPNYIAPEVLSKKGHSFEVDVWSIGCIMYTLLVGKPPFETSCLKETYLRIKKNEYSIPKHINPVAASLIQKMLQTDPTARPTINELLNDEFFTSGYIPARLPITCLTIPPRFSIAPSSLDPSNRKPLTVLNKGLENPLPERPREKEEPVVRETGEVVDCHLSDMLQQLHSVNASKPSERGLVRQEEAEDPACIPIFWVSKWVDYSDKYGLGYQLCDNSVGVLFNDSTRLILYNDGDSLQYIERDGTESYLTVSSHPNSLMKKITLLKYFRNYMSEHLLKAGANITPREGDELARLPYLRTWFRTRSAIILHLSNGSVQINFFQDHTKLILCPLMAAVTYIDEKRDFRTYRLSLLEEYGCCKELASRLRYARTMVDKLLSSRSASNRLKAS
Procedure, shortened: as §1

SGK1 = target: T3, SGK1 (Homo sapiens, UniProt O00141); details: 100 μM compound, 20 μM ATP; read-out: Kinase activity, % of activity in the absence of inhibitor
T3 sequence (O00141 1-431): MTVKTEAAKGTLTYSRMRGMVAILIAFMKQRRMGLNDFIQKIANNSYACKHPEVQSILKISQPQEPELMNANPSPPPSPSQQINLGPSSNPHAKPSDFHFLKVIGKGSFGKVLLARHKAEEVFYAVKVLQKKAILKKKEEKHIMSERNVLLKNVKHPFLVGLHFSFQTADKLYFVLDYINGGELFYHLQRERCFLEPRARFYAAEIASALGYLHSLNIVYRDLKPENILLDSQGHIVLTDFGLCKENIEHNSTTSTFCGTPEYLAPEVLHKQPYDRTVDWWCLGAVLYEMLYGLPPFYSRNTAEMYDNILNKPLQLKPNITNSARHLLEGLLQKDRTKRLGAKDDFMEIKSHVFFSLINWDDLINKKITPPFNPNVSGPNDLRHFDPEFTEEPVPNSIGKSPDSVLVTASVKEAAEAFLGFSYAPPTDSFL
Procedure, shortened: as §1

Src = Src (Homo sapiens, UniProt P12931); details: for activity at 100 µM: 100 μM compound, 50 μM ATP, read-out: Kinase activity, % of activity in the absence of inhibitor
Sequence of Src (P12931 whole entry): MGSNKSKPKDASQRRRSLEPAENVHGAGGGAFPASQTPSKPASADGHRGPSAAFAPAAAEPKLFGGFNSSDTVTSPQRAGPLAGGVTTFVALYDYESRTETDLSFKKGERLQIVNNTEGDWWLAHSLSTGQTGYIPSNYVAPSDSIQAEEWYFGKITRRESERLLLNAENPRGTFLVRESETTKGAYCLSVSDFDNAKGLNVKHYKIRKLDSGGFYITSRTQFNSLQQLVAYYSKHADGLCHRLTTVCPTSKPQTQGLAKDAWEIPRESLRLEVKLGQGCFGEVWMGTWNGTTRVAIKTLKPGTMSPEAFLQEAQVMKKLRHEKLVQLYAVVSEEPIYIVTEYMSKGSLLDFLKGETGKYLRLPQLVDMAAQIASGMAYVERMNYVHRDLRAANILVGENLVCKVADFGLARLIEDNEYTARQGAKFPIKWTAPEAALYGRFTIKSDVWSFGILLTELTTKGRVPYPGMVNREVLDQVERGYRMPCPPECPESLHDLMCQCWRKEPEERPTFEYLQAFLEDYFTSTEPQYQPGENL
Procedure, shortened: as §1

Compound	activity at 100 µM (DYRK2) [%]	activity at 100 µM (DYRK3) [%]	activity at 100 µM (JNK3) [%]	activity at 100 µM (PIM2) [%]	activity at 100 µM (PIM3) [%]	activity at 100 µM (PLK1) [%]	activity at 100 µM (SGK1) [%]	activity at 100 µM (Src) [%]	inhibition at 100 µM (Src; 100 μM CoA, kinase profiling screen) [%]	SRC inhibition (in words) (Src; kinase profiling, 100 μM)
Nc1ncnc2c1ncn2C1OC(COP(=O)(O)OP(=O)(O)O)C(O)C1O (centres unmarked) [ADP]	42.4	16.2	58.6	9.8	36.1	52.2	38.7	31.8		
CC(C)(COP(=O)(O)OP(=O)(O)OC[C@H]1O[C@@H](n2cnc3c(N)ncnc32)[C@H](O)[C@@H]1OP(=O)(O)O)[C@@H](O)C(=O)NCCC(=O)NCCS [CoA, Coenzyme A]	102	95.1	101	111	122	101	103	43.8	≤ 50	modestly inhibited
CC(C)(COP(=O)(O)OP(=O)(O)OCC1OC(n2cnc3c(N)ncnc32)C(O)C1O)C(O)C(=O)NCCC(=O)NCCS (centres unmarked) [dpCoA, dephospho-CoA]	77	91.2	63.2	62.9	96.7	100	74.3	8.9		
